These results are taken from patent publication US10238623B2, “C14-hydroxyl esterified amino acid derivative of triptolide, and preparation method and use thereof” (HANGZHOU WEBEN PHARMACEUTICALS INC, priority 2015, dated 2019).

One data set deals with c-myc. Nature of the data set: Immunoblot of c-myc level in K562 cells, 48 h. In kind it is cell-based, human. The conditions noted are these: 80 nM. Here is the method: Well-grown leukemia cells were taken and seeded into wells of a 6-well cell culture plate, with a density of 1×10^6/ml. The medium was 1640 cell medium containing 10% fetal bovine serum. 14-D-Valine-TPL with different concentrations was added, and after being uniformly mixed, the plate was placed in a carbon dioxide (5% CO2) cell incubator, and incubated at 37° C. for 48 hours. Cellular proteins were then extracted, and the immunoblot technique was used to detect the expression level of c-myc.
For orientation: A western blot detects proteins with antibodies after separation by electrophoresis.

The test system of the next data set is Sup-B15. Description: MTT growth inhibition, Sup-B15 cells, 72 h. In kind it is cell-based, human. On the procedure: (§1) 5000 well-grown leukemia cells or normal human blood cells were taken and seeded into wells of a 96-well cell culture plate. The medium was 1640 cell medium containing 10% fetal bovine serum. 14-D-Valine-TPL with different concentrations was added, and after being uniformly mixed, the plate was placed in a carbon dioxide (5% CO2) cell incubator, and incubated at 37° C. for 72 hours. The concentration of live cells was then determined using the MTT assay. In this experiment, the cell viability in the control group (without the compound treatment) was set to be 100%, and the cell viability (%) after the action of the compound the half maximal growth inhibitory concentration of leukemia cells at 72 hours (IC50 value at 72 hours) and the therapeutic window index were calculated. Therapeutic window index=IC50 value of normal blood cells/IC50 value of leukemia cells. […] A larger therapeutic window indicates a better selectivity of the compound for tumor cells.
(§2) 5000 well-grown leukemia cells were taken and seeded into wells of a 96-well cell culture plate. The medium was 1640 cell medium containing 10% fetal bovine serum. 14-D-Valine-TPL with different concentrations was added, and after being uniformly mixed, the plate was placed in a carbon dioxide (5% CO2) cell incubator, and incubated at 37° C. for 72 hours. The concentration of live cells was then determined using the MTT assay. In this experiment, the cell viability in the control group (without the compound treatment) was set to be 100%, and the cell viability (%) after the action of the compound and the half maximal growth inhibitory concentration of leukemia cells at 72 hours (IC50 value at 72 hours) were calculated.
as §2, with “well-grown lymphocytes” for “well-grown leukemia cells”

The subject of another data set is CEM. Nature of the data set: MTT growth inhibition, CEM cells, 72 h. In kind it is cell-based, human. On the procedure: as §1, §2
as §2, with “well-grown lymphocytes” for “well-grown leukemia cells”

The nature of data set [1]: Body weight and organ examination of tumour-bearing mice. In kind it is in vivo, NOD/SCID mice. The conditions noted are these: for Body weight: mice bearing KG-1a and THP-1, 14 days, individual mice, listed as DV. Here is the method: (§3) 7-week old female NOD/SCID mice were taken and inoculated subcutaneously with 1×10^7 cells (0.2 ml) per mouse in axilla, with human acute myelogenous leukemia KG-1a cells on the left and human acute monocytic leukemia THP-1 cells on the right. When tumors grew to a tumor size of around 0.5 cm, the mice were randomized into groups with 3 mice each. An equivalent amount of PBS was used for the control group, and the 14-D-Valine-TPL group was divided into two groups with 0.2 mg/kg body weight and 0.4 mg/kg body weight: intragastric administration 2 times a day (one at 8 a.m. and one at 4 p.m.) for consecutive 14 days of treatment. An observation was made for total 30 days, during which the conditions of the mice such as tumor size, weight, activity, diet, and the like were measured. At the end of the experiment, the mice were sacrificed, tumor tissues were taken and the tumors were weighed, and major organs and tissues of the mice such as liver, spleen, heart, lung, large intestine, small intestine, and the like were examined.
as §3, with “the left.” for “the left and human acute monocytic leukemia THP-1 cells on the right.”, “around 50-100 mm^3,” for “around 0.5 cm,”, “the TPL-LLV” for “the 14-D-Valine-TPL”, “with 0.23” for “with 0.2”, “and 0.46” for “and 0.4”, “intragastric administration,” for “intragastric administration”
as §3, with “the left.” for “the left and human acute monocytic leukemia THP-1 cells on the right.”, “around 50-100 mm^3,” for “around 0.5 cm,”, “the TPL-DLV” for “the 14-D-Valine-TPL”, “with 0.23” for “with 0.2”, “and 0.46” for “and 0.4”, “intragastric administration,” for “intragastric administration”
7-week old female NOD/SCID mice were taken and inoculated subcutaneously with 1×10^7 cells (0.2 ml) per mouse in axilla, with human acute myelogenous leukemia KG-1a cells on the left. When tumors grew to a tumor size of around 50-100 mm^3, the mice were randomized into groups with 3 mice each. An equivalent amount of PBS was used for the control group, and the TPL-DLV group was divided into two groups with 0.32 mg/kg body weight and 0.64 mg/kg body weight: intragastric administration, 2 times a day (one at 8 a.m. and one at 4 p.m.) for consecutive 14 days of treatment. An observation was made for total 30 days, during which the conditions of the mice such as tumor size, weight, activity, diet, and the like were measured. At the end of the experiment, the mice were sacrificed, tumor tissues were taken and the tumors were weighed, and major organs and tissues of the mice such as liver, spleen, heart, lung, large intestine, small intestine, and the like were examined. […]

Data set [2] has as its system human acute monocytic leukemia THP-1 cells. Nature of the data set: THP-1 subcutaneous xenograft in NOD/SCID mice. In kind it is in vivo. The conditions noted are these: for Tumor weight: THP-1, individual mice, end of experiment. On the procedure:
as §3

Another data set deals with KG-1a. Nature of the data set: MTT growth inhibition, KG-1a cells, 72 h. In kind it is cell-based. The conditions noted are these: Homo sapiens. Here is the method: as §2
[3] abbreviates: dose of 0.4 mg per kilogram of the body weight.

“And” between values parts separate entries of the source, which are not always exact repeats. Identical values can stand only once.

As usually defined, the IC50 is the midpoint of a concentration-inhibition curve. Lower therefore signals greater potency. In the case of `CC(C)[C@@H](N)C(=O)O[C@@H]1[C@@]2(C(C)C)O[C@H]2[C@@H]2O[C@]23[C@]12O[C@H]2C[C@H]1C2=C(CC[C@@]13C)C(=O)OC2` [14-D-Valine-TPL, 14-Dextro-Valine-Triptolide], in the data set with c-myc, the “level of c-myc (immunoblot)” value is reported as “significantly inhibited”. Besides, the IC50 turned out to be 20.7 nM in the data set on Sup-B15 (Homo sapiens, SUP-B15, 72 h); 25.5 nM with CEM (Homo sapiens, CCRF-CEM, 72 h); 31 nM with KG-1a. Also, the Therapeutic window with Sup-B15 (IC50 of normal blood cells/IC50 of Sup-B15) is 9.73; in the data set with CEM (IC50 of normal blood cells/IC50 of CEM), 7.89. For the same compound, in data set [1] (setting [3]), the “weight loss in the mice (in words)” value was “no significant weight losses”. Besides, the Body weight in data set [1] (0.2 mg/kg intragastric 2 times a day, mice bearing KG-1a xenografts) was 18.5 g and 20.2 g and 19.9 g and 18.1 g and 19.0 g and 20.4 g; in data set [1] (0.2 mg/kg intragastric 2 times a day, mice bearing THP-1 xenografts) it was 18.5 g and 20.2 g and 19.9 g and 18.1 g and 19.0 g and 20.4 g; in data set [1] (0.4 mg/kg intragastric 2 times a day, mice bearing KG-1a xenografts), 20.4 g and 21.0 g and 21.1 g and 21.4 g and 20.8 g and 19.1 g; in data set [1] (0.4 mg/kg intragastric 2 times a day, mice bearing THP-1 xenografts) it was 20.4 g and 21.0 g and 21.1 g and 21.4 g and 20.8 g and 19.1 g. In addition, in data set [1] (mice of Example 9), the “anatomical examination of major organs (heart, lung, liver, spleen, large intestine, small intestine)” value is reported as “no significant abnormalities”. The Tumor weight was 0 g (3×) and 0.21 g and 0.06 g and 0.28 g in data set [2] (trifluoroacetate 0.2 mg/kg intragastric 2 times a day, 14 days, listed as DV); 0 g in data set [2] (trifluoroacetate 0.4 mg/kg intragastric 2 times a day, 14 days). The “growth of THP-1 in mice in vivo (in words)” value in data set [2] (THP-1 xenograft, intragastric 2 times a day, 14 days, dose-dependent effect) was “significantly inhibit the growth”. Besides, the “regression of THP-1 xenograft tumors” value in data set [2] (setting [3]) was “complete regression”.
